According to patent US9055745B2, “Compositions for internal and external insecticides, ovicides, repellents and wound healing” (Natureza, Inc., priority 2011, dated 2015):

Key:
[1] = test system: fleas; test: Flea contact test using impregnated glass paper (Example XIII, FIG. 15, Table 13); format: in vivo; details: for Mortality of the fleas: 200 μL on glass filter paper, after twenty-four hours, 12 fleas
Procedure: The fatty acids used in the test were mono laurin and lauric acid, while the fatty acid esters used in the test were methyl laurate, i.e. lauric acid methyl ester and ethyl dodecanoate, i.e. lauric acid ethyl ester. Each of these compounds were dissolved in ethanol in concentrations of 0.1% and 1%, and then 200 μL (micro liters) of each solution was placed on glass filter paper (15×150 mm). After the ethanol had evaporated a paper for each concentration of each compound was put into a test tube, and 12 fleas were added per test tube and the top of the test tube was covered. Whether the fleas were alive or dead at was measured after 2 and twenty-four hours. […] Further results are shown below in Table 13.

[2] = test system: ctenocephalides felis; test: Efficacy of fatty acid methyl esters in water or acetone on glass paper (Table 14); format: in vivo
Text: Further results are shown below in Table 14, regarding the efficacy of various fatty acid methyl and ester esters against fleas (ctenocephalides felis).

| Compound | 5 Hours Alive ([2]; 0.1% in Acetone) | 5 Hours Dead ([2]; 0.1% in Acetone) | 2 hours Alive ([2]; 0.1% in Acetone) | 2 hours Dead ([2]; 0.1% in Acetone) | 20 hours Alive ([2]; 0.1% in Acetone) | 20 hours Dead ([2]; 0.1% in Acetone) | 5 Hours Alive ([2]; 0.1% in Water) | 5 Hours Dead ([2]; 0.1% in Water) | 2 hours Alive ([2]; 0.1% in Water) | 2 hours Dead ([2]; 0.1% in Water) | 20 hours Alive ([2]; 0.1% in Water) | 20 hours Dead ([2]; 0.1% in Water) | 5 Hours Alive ([2]; 1% in Acetone) | 5 Hours Dead ([2]; 1% in Acetone) | 2 hours Alive ([2]; 1% in Acetone) | 2 hours Dead ([2]; 1% in Acetone) | 20 hours Alive ([2]; 1% in Acetone) | 20 hours Dead ([2]; 1% in Acetone) | 5 Hours Alive ([2]; 1% in Water) | 5 Hours Dead ([2]; 1% in Water) | further results |
| --- | --- | --- | --- | --- | --- | --- | --- | --- | --- | --- | --- | --- | --- | --- | --- | --- | --- | --- | --- | --- | --- |
| CCCCCCCCCCCC(=O)OCC [lauric acid ethyl ester] |  |  |  |  |  |  |  |  |  |  |  |  |  |  |  |  |  |  |  |  | Mortality of the fleas ([1]; 0.1% in ethanol): 100%; Mortality of the fleas ([1]; 1% in ethanol): 100% |
| CO[C@H]1CO[C@H]2[C@@H]1OC[C@H]2OC [ISDE - 1% (benign base), isosorbide dimethyl ether] |  |  |  |  |  |  |  |  |  |  |  |  |  |  |  |  |  |  |  |  | % Killed ([1]; after 24 hours): 0%; 2 hours Alive ([1]; number of fleas, 2 hours): 12; 2 hours Dead ([1]; number of fleas, 2 hours): 0; 24 hours Alive ([1]; number of fleas, 24 hours): 12; 24 hours Dead ([1]; number of fleas, 24 hours): 0 |
| CCCCCCCCCC(=O)OC [Methyl decanoate] | 12 | 0 | 12 | 0 | 12 | 0 | 11 | 0 | 11 | 0 | 11 | 0 | 14 | 0 | 14 | 0 | 14 | 0 | 19 | 0 | 2 hours Alive ([2]; 1% in Water): 19; 2 hours Dead ([2]; 1% in Water): 0; 20 hours Alive ([2]; 1% in Water): 19; 20 hours Dead ([2]; 1% in Water): 0 |
| CCCCCCCC(=O)OC [Methyl octanoate] | 16 | 0 | 16 | 0 | 16 | 0 | 10 | 0 | 10 | 0 | 10 | 0 | 8 | 0 | 8 | 0 | 8 | 0 | 5 | 0 | 2 hours Alive ([2]; 1% in Water): 5; 2 hours Dead ([2]; 1% in Water): 0; 20 hours Alive ([2]; 1% in Water): 5; 20 hours Dead ([2]; 1% in Water): 0 |
| CCCCCCCCC(=O)OC [Methyl nonanoate] | 14 | 0 | 14 | 0 | 14 | 0 | 12 | 0 | 12 | 0 | 12 | 0 | 9 | 0 | 9 | 0 | 9 | 0 | 14 | 0 | 2 hours Alive ([2]; 1% in Water): 14; 2 hours Dead ([2]; 1% in Water): 0; 20 hours Alive ([2]; 1% in Water): 14; 20 hours Dead ([2]; 1% in Water): 0 |
| CCCCCCCCCCCC(=O)OC [Methyl laurate, lauric acid methyl ester] | 15 | 0 | 15 | 0 | 15 | 0 | 15 | 0 | 15 | 0 | 15 | 0 | 0 | 13 | 0 | 13 | 0 | 13 | 11 | 0 | Mortality of the fleas ([1]; 0.1% in ethanol): 100%; Mortality of the fleas ([1]; 1% in ethanol): 100%; 2 hours Alive ([2]; 1% in Water): 11; 2 hours Dead ([2]; 1% in Water): 0; 20 hours Alive ([2]; 1% in Water): 11; 20 hours Dead ([2]; 1% in Water): 0 |
